Read-outs that look alike come from different tables or passages of the source.
Tests used:
Aβ42 fibrils = target: T1, Aβ42 fibrils (Homo sapiens, UniProt P05067); assay: Fluorescence saturation binding assay with Aβ42 fibrils; conditions: read-out: Kd, Fibrils
T1 construct: commercial Aβ42 monomer powder (from GL biochem); purchased GL biochem
Protocol: Preparation of the Aβ42 Fibrils and Aβ42 Oligomers. Aβ42 fibrils: 1 mg of commercial Aβ42 monomer powder (from GL biochem) was dissolved in 1 mL 1,1,1,3,3,3-hexafluoro-2-propanol (HFIP) at room temperature and incubated for 1 h. The resulting solution was divided equally into two Eppendorf tubes. The solution in each Eppendorf tube containing 0.5 mg Aβ42 monomer was then evaporated overnight and dried by vacuum centrifuge to generate monomeric films. […] Aβ42 fibrils solution was prepared by dissolving the 0.5 mg monomeric films in 1.1 mL PBS buffer (with final DMSO concentration less than 1%) and stirring at 37° C. for 3 days.
(§1) In Vitro Saturation Binding Studies with Aβ42 Fibrils and Aβ42 Oligomers. To a solution of increasing concentrations of compounds, a fixed concentration of the generated aggregated Aβ42 fibrils or Aβ42 oligomers solutions (5 to 15 NM) was added to yield a total volume of 100 μL. Nonspecific binding was determined […]. The mixture was incubated for 15 min at room temperature. All fluorescence data were obtained on a SpectraMax M2e plate reader (Molecular Devices). The fluorescent intensity was measured at the corresponding emission wavelength of each compound, and the Kd binding curves were generated by GraphPad Prism 8.0 with one site-specific binding model. Equation: Y=Bmax*X/(Kd+X).

Aβ42 oligomers = target: T2, Aβ42 oligomers (Homo sapiens, UniProt P05067); assay: Fluorescence saturation binding assay with Aβ42 oligomers; conditions: for Kd: read-out: Kd, Oligomers
T2 construct: commercial Aβ42 monomer powder (from GL biochem); purchased GL biochem
Protocol: Aβ42 oligomers: The 0.5 mg monomeric films were dissolved in 1.1 mL PBS buffer (with final DMSO concentration less than 1%) and incubated at 4° C. overnight. The resulting solution was then centrifuged at 3000 rpm for 15 mins to remove the insoluble aggregates. The clear supernatant was then used for the following experiments. Aβ42 oligomers concentration was checked by measuring the absorbance of the supernatant at 280 nm.
as §1

[1] = test system: Cu^2+-Aβ42-induced toxicity in Neuro2A cells; assay: Cu2+-Aβ42-induced toxicity, Alamar blue cell viability; type: cell-based, mouse; conditions: [Aβ42]=40 μM, [Cu^2+]=40 μM, compound 10 μM (ZY-12-OMe 5 μM)
Protocol: FIG. 6. Cell viability results upon incubation of Neuro2A cells with monomeric Aβ42 in the presence or absence of metal ions and amphiphilic compounds. Concentrations: [Aβ42]=40 μM, [Cu^2+]=40 μM, [ZY-12-MT]=[ZY-15-OMe]=[ZY-15-MT]=[ZY-17-MT]=[ZY-5-OMe]=[ZY-5-MT]=[ZY-5-DT]=10 μM, [ZY-12-OMe]=5 μM. The error bars represent the standard deviation from five independent experiments, and the statistical analysis was evaluated according to one-way ANOVA (*p<0.05).
For the Cu^2+-Ap-induced toxicity studies, cells treated were monomeric Aβ42, Cu^2+, monomeric Aβ42+Cu^2+, and monomeric Aβ42+Cu^2++ compounds, respectively. After 40 h incubation, Alamar Blue solution (10 μL) was added, and the cells were incubated for another 90 min at 37° C. The fluorescence intensity of each well was measured at 590 nm (excitation wavelength=560 nm).

[2] = test system: interactions between Aβ oligomers and SH-SY5Y cell membranes; assay: Confocal imaging of Aβ oligomers binding to SH-SY5Y cell membranes; type: cell-based, human; conditions: 5 μM Aβ oligomers, 5 μM compound, 24 h
Protocol: (§2) Cell Imaging Procedures. For oligomers and fibrils imaging: Human neuroblastoma SH-SY5Y cells were grown with DMEM/10% FBS at 37° C. in a humidified atmosphere with 5% CO2, and an 8-well μ-slides (ibidi) chambered coverslip was seeded the SH-SY5Y cells. At about 80% confluency (24 h after seeding), the cells were treated with DMSO as control group, 5 μM oligomers/fibrils and 5 μM (oligomers/fibrils+ compounds), respectively. After 24 h incubation, the media was removed from each well. The cells were then fixed with 200 μL 3.7% formaldehyde for 15 min and blocked with 200 μL 3% BSA for 10 min. 3% BSA was then removed from the cells and replaced with 100 μL CF594-HJ 3.4 (1 μg/mL in 3% BSA). The cells were incubated with CF594-HJ 3.4 for 2 h at room temperature and were washed with PBS (5×100 μL). Before imaging, the cells in each well were stained with 100 μL NucBlue reagent (Thermo Fisher Scientific) for 15 min and mounted with non-fluorescent mounting media. 5-10 images of each well were taken, and the images were processed and analyzed by Fiji and Zeiss Zen lite software. Three individual replicates were conducted and subjected to the statistical analysis.

[3] = test system: interactions between Aβ fibrils and SH-SY5Y cell membranes; assay: Confocal imaging of Aβ fibrils binding to SH-SY5Y cell membranes; type: cell-based, human; conditions: 5 μM fibrils, 5 μM compound, 24 h
Protocol: as §2

[4] = test system: interactions between Cu-Aβ species and SH-SY5Y cell membranes; assay: Confocal imaging of Cu-Aβ species binding to SH-SY5Y cell membranes; type: cell-based, human; conditions: 5 μM Aβ monomers + Cu^2+ + compound, 48 h
Protocol: For monomers +Cu^2+ imaging: SH-5Y5Y were seeded as mentioned above, and cells were treated with DMSO as control group, 5 μM monomers, 5 μM (monomers +CuCl2) and 5 μM (monomers +CuCl2+compounds) respectively. After 48 h incubation, cells were treated and imaged the same way as mentioned above.

[5] = Log D by octanol-PBS partition; type: physicochemical; conditions: DCM compounds
Protocol: Log D measurements. The Log D value was measured following a published procedure using slight modifications. In general, compounds in 0.5 mL octanol was subjected to partition with 0.5 mL octanol-saturated PBS. The whole mixture was stirred vigorously for 5 min, and centrifuged at 2,000 rpm for 5 min. The top octanol layer was separated for later fluorescence measurement. The remaining PBS layer was partitioned with 0.5 mL PBS-saturated octanol, and the second top octanol layer was then separated after vigorous stirring and centrifuging at 2,000 rpm for another 5 min. The two octanol layers' fluorescence spectra were recorded. The log D value was calculated by the fluorescence intensity ratio at the compounds' emission wavelength for the above two octanol extractions.

[6] = target: T3, native Aβ species in 5×FAD mice brain sections (Homo sapiens, UniProt P05067); assay: Fluorescence staining of 5×FAD mice brain sections, colocalization; parameters: species or system mouse; conditions: 5×FAD brain sections, compared with ThS
T3 construct: from tissue; host or cells: brain sections of 5×FAD transgenic mice
Protocol: Histological Staining of 5×FAD Mice Brain Sections. 5×FAD transgenic mice brain sections were blocked with bovine serum albumin (2% BSA in PBS, pH 7.4, 10 min). Then the mice brain sections were transferred to a PBS solution of the compound and incubated for 1 h. […] Then, the brain sections were treated with BSA again (5 min) followed by washing with PBS (3×2 min), DI water (3×2 min). Finally, the mice brain sections were mounted with non-fluorescent mounting media, and the images were obtained by using EVOS FL Auto 2. ImageJ Fiji program was used for colocalization analysis and determination of the Pearson's correlation coefficient. The primary antibodies were labeled with dye CF594 via Mix-n-Stain™ CF™ 594 Antibody Labeling Kit (Sigma Aldrich).

[7] = test system: native Aβ aggregates in AD mice brain; assay: BBB permeability: in vivo accumulation after intraperitoneal treatment, brain section colocalization; parameters: species or system mouse; conditions: 12-month-old AD mice, 0.1 mg/Kg, 10 days
Protocol: FIG. 13. In vivo accumulation of DCM-OH-2-DT. Fluorescence microscopy images of brain sections from 12-month-old 5×FAD mice administered with DCM-OH-2-DT for 10 days. The brain sections were stained with Thioflavin S (ThS); [ThS]=5 μM, scale bar=125 μm.
Fluorescence Imaging of 5×FAD Mouse Brain Sections and blood-brain barrier (BBB) permeability. To confirm the developed compounds can also bind to native Aβ aggregates, we performed fluorescence imaging studies and colocalization experiments on 5×FAD mouse brain sections. […] This further supports that the compounds are selective and can bind to native soluble Aβ oligomers. Before investigating the blood-brain barrier (BBB) permeability of the developed compounds, their neurotoxicity was measured first (FIG. 12). […] DCM-OH-2 leads to less than 80% cell viability even at 2 μM, which is probably due to its poor solubility. Nevertheless, the DCM-OH-2-DT was chosen as the candidate to test the blood-brain barrier (BBB) permeability. 12-month-old AD mice were treated with compound DCM-OH-2-DT (0.1 mg/Kg) for 10 days via intraperitoneal injection. At the end of treatment, mice brains were harvested and colocalization experiments were performed on the mice brain sections.

[8] = test system: brain region of 5×FAD mice vs. WT mice; assay: Real-time in vivo NIR fluorescence imaging; parameters: species or system mouse; conditions: 5 mg/kg
Protocol: DCM-OH-2-DT was chosen as the best candidate for real-time in vivo fluorescence imaging studies. Seven-month-old AD mice and age-matched wild type (WT) mice were injected with the compound at 5 mg/kg. The NIR fluorescence intensities from the brain region were collected and analyzed over time. […] These imaging results further support the potential in vivo application of the developed compounds.
In vivo Imaging Studies. The real-time in vivo fluorescence imaging studies were performed with IVIS imaging system. 7-month-old 5×FAD mice (n=3) and age-matched control B6SJLF1/J mice (n=3) were shaved at the brain region before background imaging. All mice were injected with DCM-OH-2-DT (5 mg/kg, 15% DMSO, 85% PBS) via jugular vein injection. The mice were kept on the imaging stage under anesthesia with 2.5% isoflurane gas in an oxygen flow (1.5 L/min) before the imaging and were woken up after the imaging. Fluorescence signals from the brain were recorded at 5-, 15-, 30-, 60-min after the injection of DCM-OH-2-DT with a filter set (excitation at 470 nm and emission at 740 nm). Imaging data was analyzed by Living Image software, and an ROI was drawn around the brain region. The data were analyzed by subtracting the background fluorescence intensity of each mouse. P values were calculated by Student's t test.

[9] = target: T4, Aβ42 fibrils and oligomers (Homo sapiens, UniProt P05067); assay: Fluorescence turn-on with Aβ42 fibrils and oligomers; type: binding
T4 construct: commercial Aβ42 monomer powder (from GL biochem); purchased GL biochem
Protocol: Fluorescence Spectral Testing of Compounds with Aps2 Fibrils and Aβ42 Oligomers. The formation of Aβ42 fibrils and oligomers was confirmed by the ThT fluorescence turn-on assay. The fluorescence spectra of ThT in PBS (100 μL PBS, 10.0 μM) were recorded as the baseline. After that, either Aβ42 fibrils or oligomers were added to ThT in PBS. The final volume of the solution mixture should be 100 μL, in which the final concentrations of ThT and Aβ42 species were10. μM and 25 μM, respectively.
For the interactions between Aps and compounds, the fluorescence spectra of the compounds' solution (100 μL PBS, 5.0 μM) were recorded as the baseline without adding various Aβ42 species.
After that, either Aβ42 fibrils or oligomers were added to the compounds' solutions in PBS. The final volume of the solution mixture should be 100 μL, in which the final concentrations of the compound and Aβ42 species were 5. μM and 25 μM, respectively.

T2 sequence (P05067 672-713 limits assumed): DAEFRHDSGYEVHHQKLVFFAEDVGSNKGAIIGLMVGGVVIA
T1 sequence (P05067 672-713 limits assumed): as above
T3 sequence (P05067 672-713 limits assumed): as above
T4 sequence (P05067 672-713 limits assumed): as above

| Kd (Aβ42 fibrils; Table 1, amphiphilic compounds) | Kd (Aβ42 oligomers; Table 1, amphiphilic compounds) | Kd (Aβ42 fibrils; Table 3, DCM compounds) | Kd (Aβ42 oligomers; Table 3, DCM compounds) | logD [5] | time to maximum brain NIR fluorescence signal after injection ([8]; jugular vein injection) | maximum emission wavelength when binding to Aβ aggregates [9] | Compound | binding affinity to oligomers compared with fibrils (Kd comparison) (Aβ42 oligomers; amphiphilic ZY compounds) | effect on cell viability under Cu^2+-Aβ42 toxicity [1] | Aβ oligomers bound to cell membranes [2] | Aβ fibrils binding to cell membranes [3] | Cu-Aβ species interactions with cell membranes [4] | binding affinity towards Aβ42 oligomers over fibrils (Aβ42 oligomers; DCM compounds) | region of Aβ aggregates bound [6] | colocalization with ThS after in vivo administration [7] | brain fluorescence signal, AD mice vs WT mice ([8]; 7-month-old mice, 5-, 15-, and 30-min post injection) |
| --- | --- | --- | --- | --- | --- | --- | --- | --- | --- | --- | --- | --- | --- | --- | --- | --- |
| 1240 ± 180 nM | 470 ± 130 nM |  |  |  |  |  | COc1cc(/C=C/c2ccc(-c3ccc(C=O)cc3)s2)cc(CN2CCN(C)CCN(C)CC2)c1O [ZY-15-OMe, (E)-4-(5-(3-((4,7-dimethyl-1,4,7-triazonan-1-yl)methyl)-4-hydroxy-5-methoxystyryl)thiophen-2-yl)benzaldehyde] | higher binding affinity to oligomers over fibrils | significantly increase cell viability | fewer numbers of Aβ oligomers bound to the cell membranes | not able to significantly decrease the numbers of the Aβ fibrils binding to cell membranes | significantly decreased interactions with cell membranes |  |  |  |  |
|  |  | 780 ± 110 nM | 230 ± 30 nM | 1.13 ± 0.16 |  |  | CN1CCN(C)CCN(Cc2cc(/C=C/C=C/C3=CC(=C(C#N)C#N)c4ccccc4O3)ccc2O)CC1 [DCM-OH-2-MT, 2-(2-((1E,3E)-4-(3-((4,7-dimethyl-1,4,7-triazonan-1-yl)methyl)-4-hydroxyphenyl)buta-1,3-dien-1-yl)-4H-chromen-4-ylidene)malononitrile] |  |  |  |  |  | three times higher binding affinity towards Aβ42 oligomers over fibrils | bind to the peripheral region of the Aβ aggregates |  |  |
|  |  | 500 ± 110 nM | 430 ± 60 nM | 1.2 ± 0.07 | about 15 min | 730 nm | CN1CCN(C)CCN(Cc2cc(/C=C/C=C/C3=CC(=C(C#N)C#N)c4ccccc4O3)cc(CN3CCN(C)CCN(C)CC3)c2O)CC1 [DCM-OH-2-DT, 2-(2-((1E,3E)-4-(3,5-bis((4,7-dimethyl-1,4,7-triazonan-1-yl)methyl)-4-hydroxyphenyl)buta-1,3-dien-1-yl)-4H-chromen-4-ylidene)malononitrile] |  |  |  |  |  |  | bind to the peripheral region of the Aβ aggregates | good colocalization with ThS | significantly higher fluorescence signal in AD mice |
| 530 ± 30 nM | 2030 ± 110 nM |  |  |  |  |  | CN1CCN(C)CCN(Cc2cc(/C=C/c3ccc(-c4ccc(C=O)cc4)s3)ccc2O)CC1 [ZY-15-MT, (E)-4-(5-(3-((4,7-dimethyl-1,4,7-triazonan-1-yl)methyl)-4-hydroxystyryl)thiophen-2-yl)benzaldehyde] |  | significantly increase cell viability | fewer numbers of Aβ oligomers bound to the cell membranes | not able to significantly decrease the numbers of the Aβ fibrils binding to cell membranes | significantly decreased interactions with cell membranes |  |  |  |  |
